This passage reports inhibition and inhibition of growth results from ChEMBL document CHEMBL4033705, “Screening for bioactive natural products from a 67-compound library of Glycyrrhiza inflata” (Bioorg Med Chem, 2017).

Data set [1] can be described thus: Growth inhibition of human LO2 cells at 10 uM after 24 hrs by MTS assay relative to control. The format is cell-based, L02. The following applies: LO2 cells, read-out: GI.
The species entered for a further data set is Homo sapiens. Briefly: Inhibition of LPS-induced NF-kappaB transcription (unknown origin) expressed in human SW480 cells at 10 uM by luciferase reporter gene assay. It counts as cell-based. Background: In a reporter assay the amount or activity of a reporter protein is the signal.
The next data set has as its system SW480. Briefly: Growth inhibition of human SW480 cells at 10 uM after 24 hrs by MTS assay relative to control. It counts as functional. The following applies: SW480, 24 h, read-out: GI. (Formazan colour is commonly taken as a measure of viable cells.)
The test system of a further data set is HepG2. Briefly: Growth inhibition of human HepG2 cells at 10 uM after 24 hrs by MTS assay relative to control. It counts as functional. The following applies: HepG2, 24 h, read-out: GI.
Data set [2] in a line: Growth inhibition of human HEK293T cells at 10 uM after 24 hrs by MTS assay relative to control. It counts as cell-based, HEK-293T. The conditions noted are these: HEK293T cells, read-out: GI.
The test system of another data set is MCF7. Briefly: Growth inhibition of human MCF7 cells at 10 uM after 24 hrs by MTS assay relative to control. It counts as functional. The following applies: MCF7, 24 h, read-out: GI.
The subject of another data set is RAW264.7. Kind of data set: Antiinflammatory activity in mouse RAW264.7 cells assessed as inhibition of LPS-induced NO production at 10 uM after 24 hrs by Griess reagent based assay relative to control. The format is functional. The conditions noted are these: RAW264.7, 24 h. Background: The Griess reaction detects nitrite, a stable product of nitric oxide.
The target of data set [3] is Mushroom tyrosinase (Agaricus bisporus) (UniProt O42713+Q00024+C7FF04+C7FF05). Kind of data set: Inhibition of mushroom tyrosinase at 10 uM using L-tyrosine as substrate incubated for 15 mins followed by substrate addition relative to control.
Data set [4] concerns the target T1, Tyrosine-protein phosphatase non-receptor type 1 (Homo sapiens) (UniProt P18031).
T1 sequence (whole entry): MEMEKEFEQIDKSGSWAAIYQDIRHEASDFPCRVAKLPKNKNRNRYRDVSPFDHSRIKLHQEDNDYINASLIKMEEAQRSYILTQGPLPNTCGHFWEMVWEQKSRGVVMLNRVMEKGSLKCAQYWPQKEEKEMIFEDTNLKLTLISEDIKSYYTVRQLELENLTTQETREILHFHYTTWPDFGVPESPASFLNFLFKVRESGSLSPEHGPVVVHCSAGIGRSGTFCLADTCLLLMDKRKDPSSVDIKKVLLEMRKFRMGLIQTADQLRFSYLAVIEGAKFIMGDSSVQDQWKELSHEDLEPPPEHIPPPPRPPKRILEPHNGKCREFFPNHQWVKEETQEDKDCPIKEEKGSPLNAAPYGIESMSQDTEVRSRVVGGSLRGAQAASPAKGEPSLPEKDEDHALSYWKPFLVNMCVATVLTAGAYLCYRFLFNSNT
Briefly: Inhibition of recombinant human PTP1B using p-nitrophenyl phosphate as substrate at 10 uM after 30 mins relative to control.

SMILES strings stand for the structures.

Turning to `CC1(C)C=Cc2c(cc3occ(-c4ccc(O)cc4)c(=O)c3c2O)O1` [ALPINUMISOFLAVONE], the inhibition at 24 h, 10 µM in data set [1] is 5%; in data set [2], 15%. Besides, the inhibition in the data set listed under Homo sapiens was determined as 41%; in [3], 2%; in [4], 79%. Besides, the inhibition of growth at 10 µM was determined as 13% with SW480, 40% in the data set with HepG2 and 3% in the data set with MCF7. Further, the inhibition at 10 µM in the data set on RAW264.7 is 19%.
Turning to `CC1(C)C(=O)CC[C@]2(C)[C@H]3C(=O)C=C4[C@@H]5C[C@@](C)(C(=O)O)CC[C@]5(C)CC[C@@]4(C)[C@]3(C)[C@@H](O)C[C@@H]12`, the values for the inhibition (in the data set filed under Homo sapiens; in [3]; in [4]) were 28%, 5% and 1%, respectively. The figures for the inhibition of growth at 10 µM in the data set with SW480, with HepG2 and in the data set on MCF7 were 48%, 1% and 25%, respectively. In addition, the inhibition at 10 µM in the data set on RAW264.7 was found to be 6%.
As to `COc1ccc(-c2coc3c(O)c(O)c(CC=C(C)C)cc3c2=O)cc1`, the figures for the inhibition (in the data set listed under Homo sapiens; in data set [3]; in [4]) were 21%, 7% and 74%, respectively. Besides, the inhibition of growth at 10 µM in the data set on SW480 worked out at 51%; with HepG2 it was 48%; in the data set on MCF7, 4%. For the same compound, the inhibition at 10 µM with RAW264.7 amounted to 17%.
As to `O=C1C[C@@H](c2ccc(O)cc2)Oc2cc(O)ccc21` [LIQUIRTIGENIN], the results for the inhibition (in the data set filed under Homo sapiens; in [3]; in [4]) were 19%, 2% and 36%, respectively. Further, the values for the inhibition of growth at 10 µM in the data set with SW480, in the data set with HepG2 and in the data set with MCF7 were 9%, 13% and 27%, respectively. The inhibition at 10 µM with RAW264.7 came out at 0%.
Regarding `COc1ccc(-c2coc3cc(O)ccc3c2=O)c(O)c1` [XENOGNOSIN B], the inhibition in the data set filed under Homo sapiens was found to be 4%; in data set [3] it was 11%; in [4] it was 47%. Further, the inhibition of growth at 10 µM was determined as 13% in the data set with SW480, 0% with HepG2 and 1% in the data set on MCF7. In the data set with RAW264.7, the inhibition at 10 µM worked out at 1%.
For `CC(C)=CCc1c(O)cc(O)c2c(=O)c(-c3ccc(O)cc3)coc12`, the inhibition in the data set listed under Homo sapiens was 25%; in data set [3], 16%; in [4], 0%. For the same compound, the inhibition of growth at 10 µM with SW480 is 13%; in the data set on HepG2, 23%; in the data set with MCF7, 23%. Also, in the data set with RAW264.7, the inhibition at 10 µM came out at 18%.
For the compound `CC(C)=CCc1cc([C@@H]2CC(=O)c3ccc(O)cc3O2)ccc1O` [ABYSSINONE II], the inhibition in the data set filed under Homo sapiens was 0%; in data set [3], 4%; in [4] it was 5%. For the same compound, the results for the inhibition of growth at 10 µM with SW480, with HepG2 and in the data set with MCF7 were 22%, 4% and 25%, respectively. Also, the inhibition at 10 µM with RAW264.7 was 8%.
Consider `CC1(C)C=Cc2c(ccc(-c3coc4cc(O)cc(O)c4c3=O)c2O)O1` [LICOISOFLAVONE B], for which the results for the inhibition (in the data set listed under Homo sapiens; in [3]; in [4]) were 4%, 14% and 69%, respectively. Further, the inhibition of growth at 10 µM with SW480 is 13%; with HepG2 it was 13 to 14%; in the data set with MCF7 it was 14%. Further, the inhibition at 10 µM in the data set on RAW264.7 is 10%.
As for `O=c1c(-c2ccc(O)cc2)coc2cc(O)cc(O)c12` [GENISTEIN], the figures for the inhibition (in the data set filed under Homo sapiens; in [3]; in data set [4]) were 14%, 2% and 29%, respectively. In addition, the inhibition of growth at 10 µM came to 21% in the data set with SW480, 29% in the data set with HepG2 and 6% with MCF7. For the same compound, the inhibition at 10 µM with RAW264.7 amounted to 13%.
As to `COc1cc([C@H]2COc3cc(O)ccc3C2)ccc1O`, the results for the inhibition (in the data set listed under Homo sapiens; in data set [3]; in [4]) were 0%, 6% and 2%, respectively. The inhibition of growth at 10 µM in the data set on SW480 was determined as 24%; with HepG2, 3%; in the data set on MCF7 it was 14%. Besides, the inhibition at 10 µM in the data set on RAW264.7 was 23%.
On to `CC(C)=CCc1c(O)ccc(-c2coc3cc(O)c(CC=C(C)C)c(O)c3c2=O)c1O`, for which the figures for the inhibition (in the data set listed under Homo sapiens; in [3]; in [4]) were 15%, 2% and 78%, respectively. The values for the inhibition of growth at 10 µM with SW480, in the data set with HepG2 and in the data set on MCF7 were 46%, 0% and 4%, respectively. Further, the inhibition at 10 µM with RAW264.7 was 0%.
In the case of `O=c1cc(-c2ccc(O)cc2)oc2cc(O)ccc12`, the figures for the inhibition (in the data set filed under Homo sapiens; in data set [3]; in [4]) were 0%, 11% and 55%, respectively. Moreover, the inhibition of growth at 10 µM with SW480 came to 22%; in the data set on HepG2, 18%; in the data set on MCF7 it was 11%. The inhibition at 10 µM in the data set with RAW264.7 came to 5%.
Turning to `CC(C)=CCc1c(O)cc(O)c2c(=O)c(-c3ccc(O)cc3O)coc12`, the inhibition in the data set filed under Homo sapiens was 8%; in data set [3], 17%; in [4], 34%. Besides, the values for the inhibition of growth at 10 µM in the data set on SW480, with HepG2 and in the data set on MCF7 were 13%, 5% and 31%, respectively. For the same compound, the inhibition at 10 µM with RAW264.7 was 9%.
On to `CC(C)=CCc1c(O)ccc(-c2coc3cc(O)ccc3c2=O)c1O`, for which the inhibition in the data set listed under Homo sapiens was 3%; in data set [3], 6%; in data set [4], 56%. Further, the results for the inhibition of growth at 10 µM in the data set with SW480, in the data set on HepG2 and in the data set with MCF7 were 35%, 11% and 36%, respectively. Besides, in the data set with RAW264.7, the inhibition at 10 µM worked out at 25%.
Consider `CC1(C)C=Cc2c(ccc(-c3coc4cc(O)ccc4c3=O)c2O)O1` [GLABRONE], for which the inhibition in the data set listed under Homo sapiens is 15%; in data set [3] it was 3%; in data set [4], 69%. The inhibition of growth at 10 µM in the data set with SW480 came to 50%; with HepG2, 16%; in the data set on MCF7 it was 12%. Further, the inhibition at 10 µM with RAW264.7 came to 5%.
On to `CC(C)=CCc1c(O)ccc(-c2coc3cc(O)cc(O)c3c2=O)c1O`, for which the inhibition in the data set listed under Homo sapiens worked out at 5%; in data set [3] it was 5%; in data set [4], 7%. Moreover, the inhibition of growth at 10 µM was found to be 26% in the data set on SW480, 5% with HepG2 and 18% in the data set with MCF7. In the data set with RAW264.7, the inhibition at 10 µM worked out at 20%.
As to `CC1(C)C=Cc2cc(-c3coc4cc(O)ccc4c3=O)cc(O)c2O1`, the inhibition in the data set filed under Homo sapiens worked out at 23%; in data set [3], 0%; in data set [4], 0%. In addition, the inhibition of growth at 10 µM came to 5% in the data set with SW480, 14% with HepG2 and 0% with MCF7. The inhibition at 10 µM with RAW264.7 was determined as 22%.
With `O=C1C[C@@H](c2ccc(O)cc2)Oc2cc(O)cc(O)c21` [NARINGENIN], the results for the inhibition (in the data set filed under Homo sapiens; in [3]; in [4]) were 22%, 10% and 43%, respectively. In addition, the inhibition of growth at 10 µM with SW480 was 28%; with HepG2, 28%; in the data set with MCF7, 21%. Moreover, in the data set on RAW264.7, the inhibition at 10 µM was 6%.
With `COc1cc(O)c(-c2coc3cc(O)ccc3c2=O)c(OC)c1CC=C(C)C`, the inhibition in the data set filed under Homo sapiens is 3%; in [3], 15%; in data set [4] it was 18%. Also, the inhibition of growth at 10 µM with SW480 amounted to 0%; in the data set on HepG2 it was 0%; in the data set with MCF7, 33%. Further, in the data set on RAW264.7, the inhibition at 10 µM came to 14%.
Consider `CC(C)=CCc1cc(-c2coc3cc(O)cc(O)c3c2=O)cc(O)c1O` [GLYCYRRHISOFLAVONE], for which the inhibition was determined as 8% in the data set filed under Homo sapiens, 8% in data set [3] and 52% in data set [4]. Moreover, the figures for the inhibition of growth at 10 µM with SW480, in the data set on HepG2 and in the data set with MCF7 were 18%, 0% and 15%, respectively. Moreover, in the data set on RAW264.7, the inhibition at 10 µM worked out at 3%.
Consider `COc1cc(O)ccc1/C=C/C(=O)c1ccc(O)cc1` [ECHINATIN], for which the inhibition in the data set filed under Homo sapiens is 0%; in data set [3], 16%; in [4], 75%. In addition, the results for the inhibition of growth at 10 µM with SW480, in the data set with HepG2 and with MCF7 were 24%, 6% and 0%, respectively. In addition, the inhibition at 10 µM in the data set on RAW264.7 is 26%.
Consider `CC(C)=CCc1c(O)ccc(C(=O)/C=C/c2ccc(O)cc2)c1O` [ISOBAVACHALCONE], for which the inhibition in the data set filed under Homo sapiens was 0%; in [3], 14%; in data set [4], 73%. The results for the inhibition of growth at 10 µM in the data set with SW480, in the data set with HepG2 and in the data set on MCF7 were 20%, 39% and 16%, respectively. Besides, in the data set with RAW264.7, the inhibition at 10 µM came out at 0%.
